In patent US20070066627A1, “Hydrazone derivatives for combatting harmful insects and arachnids” (priority 2004, published 2007):

Columns and labels:
Assay type in all cases: in vivo
[1] = test system: 2-Spotted Spider Mite (tetranychus urticae, OP-Resistant Strain); test: 2-spotted spider mite test on Sieva lima bean plants; settings: 120 h, plants dipped, after 5 days, read-out: mortality compared to untreated controls
Procedure: 2.6 2-Spotted Spider Mite (tetranychus urticae, OP-Resistant Strain)
Sieva lima bean plants with primary leaves expanded to 7-12 cm were infested by placing on each a small piece from an infested leaf (with about 100 mites) taken from the main colony. This was done at about 2 hours before treatment to allow the mites to move over to the test plant to lay eggs. The piece of leaf used to transfer the mites was removed. The newly-infested plants were dipped in the test solution and allowed to dry. The test plants were kept under fluorescent light (24 hour photoperiod) at about 25° C. and 20-40% relative humidity. After 5 days, one leaf was removed and mortality counts were made.

[2] = test system: Silverleaf Whitefly (bemisia argentifolii); test: Silverleaf whitefly test on cotton plants; settings: 72 h, cotyledons dipped, adults, 3 days after treatment, read-out: mortality compared to untreated controls
Procedure: 2.5 Silverleaf Whitefly (bemisia argentifolii)
(§1) The active compounds were formulated in 50:50 acetone:water and 100 ppm Kinetic® surfactant.
Selected cotton plants were grown to the cotyledon state (one plant per pot). The cotyledons were dipped into the test solution to provide complete coverage of the foliage and placed in a well-vented area to dry. Each pot with treated seedling was placed in a plastic cup and 10 to 12 whitefly adults (approximately 3-5 day old) were introduced. The insects were collected using an aspirator and an 0.6 cm, non-toxic Tygon® tubing (R-3603) connected to a barrier pipette tip. The tip, containing the collected insects, was then gently inserted into the soil containing the treated plant, allowing insects to crawl out of the tip to reach the foliage for feeding. The cups were covered with a reusable screened lid (150 micron mesh polyester screen PeCap from Tetko Inc). Test plants were maintained in the holding room at about 25° C. and 20-40% relative humidity for 3 days avoiding direct exposure to the fluorescent light (24 hour photoperiod) to prevent trapping of heat inside the cup. Mortality was assessed 3 days after treatment of the plants.

[3] = test system: Southern Armyworm (Spodoptera eridania), 2nd Instar Larvae; test: Southern armyworm leaf-dip test, 2nd instar larvae; settings: foliar, 120 h, observation at 5 days, read-out: mortality in comparison with untreated controls
Procedure: 2.1 Southern Armyworm (Spodoptera eridania), 2nd Instar Larvae
The active compounds were formulated for testing the activity against insects and arachnids as a 10.000 ppm solution in a mixture of 35% acetone and water, which was diluted with water, if needed.
A Sieva lima bean leaf expanded to 78 cm in length is dipped in the test solution with agitation for 3 seconds and allowed to dry in a hood. The leaf is then placed in a 100×10 mm petri dish containing a damp filter paper on the bottom and ten 2nd instar caterpillars. At 5 days, observations are made of mortality, reduced feeding, or any interference with normal molting.

[4] = test system: Orchid Thrips (dichromothrips corbetti); test: Orchid thrips floral-immersion test; settings: 96 h, adults, after 4 days, read-out: mortality compared to untreated controls
Procedure: 2.7 Orchid Thrips (dichromothrips corbetti)
Dichromothrips corbetti adults used for bioassay were obtained from a colony maintained continuously under laboratory conditions. For testing purposes, the test compound was diluted to a concentration of 500 ppm (wt compound:vol diluent) in a 1:1 mixture of acetone:water, plus 0.01% Kinetic® surfactant.
Thrips potency of each compound was evaluated by using a floral-immersion technique. Plastic petri dishes were used as test arenas. All petals of individual, intact orchid flowers were dipped into treatment solution for approximately 3 seconds and allowed to dry for 2 hours. Treated flowers were placed into individual petri dishes along with 10-15 adult thrips. The petri dishes were then covered with lids. All test arenas were held under continuous light and a temperature of about 28° C. for duration of the assay. After 4 days, the numbers of live thrips were counted on each flower, and along inner walls of each petri dish. The level of thrips mortality was extrapolated from pretreatment thrips numbers.

[5] = test system: Cotton Aphid (aphis gossypii); test: Cotton aphid test on cotton cotyledons; settings: 120 h, cotyledons dipped, after 5 days, read-out: mortality in comparison with untreated controls
Source text: 2.2 Cotton Aphid (aphis gossypii)
as §1
Cotton plants at the cotyledon stage (one plant per pot) were infested by placing a heavily infested leaf from the main colony on top of each cotyledon. The aphids were allowed to transfer to the host plant overnight, and the leaf used to transfer the aphids was removed. The cotyledons were dipped in the test solution and allowed to dry. After 5 days, mortality counts were made.

SMILES | mortality at 300 ppm [1] | mortality at 300 ppm [2] | other results
CC(C=NNC(=O)Cc1cccc2ccccc12)=Cc1cccc(F)c1 [Compound 21] | > 75% | – | –
CCC(C=NNC(=O)c1ccc(F)cc1)=Cc1ccccc1 [Compound 189] | – | > 80% | –
CCC(C=NNC(=O)c1ccccc1F)=Cc1ccccc1 [Compound 193] | – | > 80% | –
CC(C=NNC(=O)c1[nH]cnc1C)=Cc1ccc(Cl)cc1Cl [Compound 138] | > 75% | – | –
CC(C=NNC(=O)c1cccs1)=Cc1ccccc1 [Compound 50] | – | > 80% | –
O=C(NN=CC=Cc1ccccc1)c1ccc(Cl)s1 [Compound 96] | > 75% | – | –
CC(C=NNC(=O)c1ccc(C)cc1)=Cc1ccccc1 [Compound 183] | > 75% | > 80% | mortality at 300 ppm [3]: > 80%
CC(C=NNC(=O)c1ccc(C)s1)=Cc1ccc(OC(F)F)cc1 [Compound 91] | > 75% | – | –
CC(C=NNC(=O)c1ccccn1)=Cc1ccc(F)cc1 [Compound 158] | – | > 80% | –
COc1ccccc1C(=O)NN=CC(C)=Cc1cccc(F)c1 [Compound 187] | – | > 80% | –
CC(C=NNC(=O)c1[nH]cnc1C)=Cc1cccc(F)c1 [Compound 144] | – | – | mortality at 500 ppm [4]: > 95%
CC(C=NNC(=O)c1ccccn1)=Cc1ccccc1 [Compound 156] | – | > 80% | mortality at 300 ppm [5]: > 75%
